# In patent US8008303B2, “Biphenyl derivatives and their use in treating hepatitis C” (AstraZeneca AB, priority 2005, dated 2011):
# Where two headings read alike, the source gives them in different places.
# Legend:
# [1] = test system: HCV replicon cells Huh 9B; type: cell-based
# [2] = test system: HCV replicon cells Huh 9B; assay: HCV replicon assay (luciferase readout); type: cell-based
# Summary of the method: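 Compounds, made up at twice final strength (final DMSO 1%), were added to subgenomic replicon cells one day after plating. Incubation then ran 72 h at 37 °C, 5% CO2, without G418. Replication was quantified as firefly luciferase luminescence in lysed cells, with cytotoxicity assessed on a duplicate clear plate.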
# [3] = concentration reducing total cell area by 50% relative to DMSO controls, methylene blue, absorbance 620 nm, 72 h incubation
# [4] = Hepatitis C virus, 72 h, concentration reducing replicon level (luciferase activity) by 50% vs untreated cell control, 72 h incubation
Structure (SMILES),"TD50 [1, 3]","IC50 [2, 4]",TD50 [1],IC50 [2]
"Cc1ccc(C(=O)Nc2ccc(N3CCOCC3)cc2)cc1-c1ccc(NC(=O)c2ccc(CN(C)C)cc2)cc1 [Example 117, 4′-(4-Dimethylaminomethyl-benzoylamino)-6-methyl-biphenyl-3-carboxylic acid (4-morpholin-4-yl-phenyl)-amide]",* (* < 50 μM),1000 to 5000 nM,–,–
"Cc1ccc(C(=O)Nc2ccc(N3CCOCC3)cc2)cc1-c1ccc(NC(=O)c2ccc(CN3CCOCC3)cc2)cc1 [Example 118, 6-Methyl-4′-(4-morpholin-4-ylmethyl-benzoylamino)-biphenyl-3-carboxylic acid (4-morpholin-4-yl-phenyl)-amide]",* (* < 50 μM),> 5000 nM,–,–
"Cc1ccc(C(=O)Nc2ccc(N3CCOCC3)cc2)cc1-c1ccc(NC(=O)c2ccc(N3CCOCC3)cc2)cc1 [Example 119, 6-Methyl-4′-(4-morpholin-4-yl-benzoylamino)-biphenyl-3-carboxylic acid (4-morpholin-4-yl-phenyl)-amide]",** (** > 50 μM),1000 to 5000 nM,–,–
"O=C(Nc1ccc(CN2CCS(=O)(=O)CC2)cc1)c1ccc(-c2cccc(C(=O)Nc3ccc(N4CCOCC4)cc3)c2)cc1 [Example 120, Biphenyl-3,4′-dicarboxylic acid 4′-{[4-(1,1-dioxo-1lambda*6 *-thiomorpholin-4-ylmethyl)-phenyl]-amide} 3-[(4-morpholin-4-yl-phenyl)-amide]]",–,–,** (key: * < 50 μM; ** > 50 μM),1000 to 5000 nM
"Cc1ccc(C(=O)NC2CC2)cc1-c1ccc(C(=O)Nc2ccc(CN3CCS(=O)(=O)CC3)cc2)cc1 [Example 121, 6-Methyl-biphenyl-3,4′-dicarboxylic acid 3-cyclopropylamide 4′-{[4-(1,1-dioxo-1lambda*6*-thiomorpholin-4-ylmethyl)-phenyl]-amide}]",–,–,* (key: * < 50 μM; ** > 50 μM),1000 to 5000 nM
"Cc1ccc(C(=O)NCCC(C)C)cc1-c1ccc(C(=O)Nc2ccc(CN3CCS(=O)(=O)CC3)cc2)cc1 [Example 122, 6-Methyl-biphenyl-3,4′-dicarboxylic acid 4′-{[4-(1,1-dioxo-1lambda*6*-thiomorpholin-4-ylmethyl)-phenyl]-amide} 3-[(3-methyl-butyl)-amide]]",–,–,* (key: * < 50 μM; ** > 50 μM),< 1000 nM
"Cc1ccc(C(=O)NCc2cccc(F)c2)cc1-c1ccc(C(=O)Nc2ccc(CN3CCS(=O)(=O)CC3)cc2)cc1 [Example 123, 6-Methyl-biphenyl-3,4′-dicarboxylic acid 4′-{[4-(1,1-dioxo-1lambda*6*-thiomorpholin-4-ylmethyl)-phenyl]-amide} 3-(3-fluoro-benzylamide)]",–,–,* (key: * < 50 μM; ** > 50 μM),< 1000 nM
"Cc1ccc(C(=O)NCC2CCCO2)cc1-c1ccc(C(=O)Nc2ccc(CN3CCS(=O)(=O)CC3)cc2)cc1 (stereo not drawn) [Example 124, 6-Methyl-biphenyl-3,4′-dicarboxylic acid 4′-{[4-(1,1-dioxo-1lambda*6*-thiomorpholin-4-ylmethyl)-phenyl]-amide} 3-[(tetrahydro-furan-2-ylmethyl)-amide]]",–,–,* (key: * < 50 μM; ** > 50 μM),1000 to 5000 nM
"Cc1ccc(C(=O)NCCN2CCCCC2)cc1-c1ccc(C(=O)Nc2ccc(CN3CCS(=O)(=O)CC3)cc2)cc1 [Example 125, 6-Methyl-biphenyl-3,4′-dicarboxylic acid 4′-{[4-(1,1-dioxo-1lambda*6*-thiomorpholin-4-ylmethyl)-phenyl]-amide} 3-[(2-piperidin-1-yl-ethyl)-amide]]",–,–,* (key: * < 50 μM; ** > 50 μM),1000 to 5000 nM
"COCCNC(=O)c1ccc(C)c(-c2ccc(C(=O)Nc3ccc(CN4CCS(=O)(=O)CC4)cc3)cc2)c1 [Example 126, 6-Methyl-biphenyl-3,4′-dicarboxylic acid 4′-{[4-(1,1-dioxo-1lambda*6*-thiomorpholin-4-ylmethyl)-phenyl]-amide} 3-[(2-methoxy-ethyl)-amide]]",–,–,* (key: * < 50 μM; ** > 50 μM),1000 to 5000 nM
"Cc1ccc(C(=O)NCCc2cnc[nH]2)cc1-c1ccc(C(=O)Nc2ccc(CN3CCS(=O)(=O)CC3)cc2)cc1 [Example 127, 6-Methyl-biphenyl-3,4′-dicarboxylic acid 4′-{[4-(1,1-dioxo-1lambda*6*-thiomorpholin-4-ylmethyl)-phenyl]-amide} 3-{[2-(3H-imidazol-4-yl) -ethyl]-amide}]",–,–,* (key: * < 50 μM; ** > 50 μM),1000 to 5000 nM
"Cc1ccc(C(=O)N2CCC(N3CCCC3)CC2)cc1-c1ccc(C(=O)Nc2ccc(CN3CCS(=O)(=O)CC3)cc2)cc1 [Example 128, 2′-Methyl-5′-(4-pyrrolidin-1-yl-piperidine-1-carbonyl) -biphenyl-4-carboxylic acid [4-(1,1-dioxo-1lambda*6*-thiomorpholin-4-ylmethyl)-phenyl]-amide]",* (* < 50 μM),1000 to 5000 nM,–,–
"Cc1ccc(C(=O)Nc2ccc(CN3CCS(=O)(=O)CC3)cc2)cc1-c1ccc(C(=O)Nc2ccc(CN3CCS(=O)(=O)CC3)cc2)cc1 [Example 129, 6-Methyl-biphenyl-3,4′-dicarboxylic acid bis-{[4-(1,1-dioxo-1lambda*6*-thiomorpholin-4-ylmethyl)-phenyl]-amide}]",* (* < 50 μM),< 1000 nM,–,–
"Cc1ccc(C(=O)Nc2ccc(N(C)C)cc2)cc1-c1ccc(C(=O)Nc2ccc(CN3CCS(=O)(=O)CC3)cc2)cc1 [Example 130, 6-Methyl-biphenyl-3,4′-dicarboxylic acid 3-[(4-dimethylamino-phenyl)-amide] 4′-{[4-(1,1-dioxo-1lambda*6*-thiomorpholin-4-ylmethyl)-phenyl]-amide}]",–,–,* (key: * < 50 μM; ** > 50 μM),< 1000 nM
"Cc1cc(NC(=O)C2CC2)ccc1-c1cccc(C(=O)Nc2ccc(CN3CCS(=O)(=O)CC3)cc2)c1 [Example 131, 4′-(Cyclopropanecarbonyl-amino)-2′-methyl-biphenyl-3-carboxylic acid [4-(1,1-dioxo-1lambda*6*-thiomorpholin-4-ylmethyl)-phenyl]-amide]",* (* < 50 μM),1000 to 5000 nM,–,–
"Cc1ccc(NC(=O)C2CC2)cc1-c1ccc(C(=O)Nc2ccc(CN3CCS(=O)(=O)CC3)cc2)cc1 [Example 132, 5′-(Cyclopropanecarbonyl-amino)-2′-methyl-biphenyl-4-carboxylic acid [4-(1,1-dioxo-1lambda*6*-thiomorpholin-4-ylmethyl)-phenyl]-amide]",* (* < 50 μM),< 1000 nM,–,–
"Cc1cc(NC(=O)c2ccco2)ccc1-c1cccc(C(=O)Nc2ccc(CN3CCS(=O)(=O)CC3)cc2)c1 [Example 133, Furan-2-carboxylic acid {3′-[4-(1,1-dioxo-1lambda*6*-thiomorpholin-4-ylmethyl)-phenylcarbamoyl]-2-methyl-biphenyl-4-yl}-amide]",* (* < 50 μM),1000 to 5000 nM,–,–
"COc1ccccc1C(=O)Nc1ccc(-c2cccc(C(=O)Nc3ccc(CN4CCS(=O)(=O)CC4)cc3)c2)c(C)c1 [Example 134, 4′-(2-Methoxy-benzoylamino)-2′-methyl-biphenyl-3-carboxylic acid [4-(1,1-dioxo-1lambda*6*-thiomorpholin-4-ylmethyl)-phenyl]-amide]",* (* < 50 μM),1000 to 5000 nM,–,–
